Data reported in ChEMBL document CHEMBL1799954, “Structure and cytotoxicity of diterpenoids from Isodon adenolomus” (J Nat Prod, 2011).

Columns and labels:
Assay type in all cases: functional, cell-based
[1] = tested on: HL-60; assay: Cytotoxicity against human HL60 cells after 48 hrs by MTT method; settings: HL-60, 48 h
[2] = tested on: SMMC-7721; assay: Cytotoxicity against human SMMC7721 cells after 48 hrs by MTT method; settings: SMMC-7721, 48 h
[3] = tested on: A549; assay: Cytotoxicity against human A549 cells after 48 hrs by MTT method; settings: A549, 48 h
[4] = tested on: MCF7; assay: Cytotoxicity against human MCF7 cells after 48 hrs by MTT method; settings: MCF7, 48 h
[5] = tested on: SW480; assay: Cytotoxicity against human SW480 cells after 48 hrs by MTT method; settings: SW480, 48 h

SMILES | IC50 [1] [µM] | IC50 [2] [µM] | IC50 [3] [µM] | IC50 [4] [µM] | IC50 [5] [µM]
C=C1[C@@H](O)[C@]23[C@H](O)[C@H]1C[C@H](OC(C)=O)[C@H]2[C@@]12CCCC(C)(C)[C@H]1[C@H](O)[C@@]3(O)O[C@@H]2OC [ISOADENOLIN G] | > 10 | > 10 | > 10 | > 10 | > 10
C=C1C(=O)[C@@]23[C@H]4O[C@H]5O[C@]2(O)[C@@H](O)[C@@H]2C(C)(C)CC[C@H](OC(C)=O)[C@]52[C@@H]3CC[C@@H]14 [ISOADENOLIN B] | > 10 | > 10 | > 10 | > 10 | > 10
C=C1[C@@H](O)[C@]23[C@H](O)[C@H]1C[C@H](O)[C@H]2[C@@]12CCCC(C)(C)[C@H]1[C@H](OC(C)=O)[C@@]3(O)O[C@@H]2OC [ISOADENOLIN F] | > 10 | > 10 | > 10 | > 10 | > 10
C=C1C(=O)[C@]23C[C@H]1CC=C2[C@@]12CO[C@]3(O)[C@@H](O)[C@@H]1C(C)(C)CC[C@@H]2OC(C)=O [ISOADENOLIN I] | 2.6 | 3 | 5 | 2.6 | 3.1
C=C1[C@@H](O)[C@]23[C@H](O)[C@H]1CC[C@H]2[C@@]12C(=O)O[C@]3(O)[C@@H](O)[C@@H]1C(C)(C)CC[C@@H]2OC(C)=O | > 10 | > 10 | > 10 | > 10 | > 10
C=C1[C@@H](O)[C@@]23[C@H]4O[C@H]5O[C@]2(O)[C@@H](OC(C)=O)[C@@H]2C(C)(C)CCC[C@@]52[C@@H]3[C@@H](O)C[C@@H]14 [ISOADENOLIN A] | > 10 | > 10 | > 10 | > 10 | > 10
C=C1C(=O)[C@]23C[C@H]1CC[C@H]2[C@@]12CO[C@@]3(O)[C@@H](O)[C@@H]1C(C)(C)CC[C@@H]2OC(C)=O [EFFUSANIN B] | 0.7 | 1 | 3.5 | 0.7 | 0.8
C=C1C(=O)[C@]23C[C@H]1C[C@@H](OC(C)=O)[C@H]2[C@]12CCCC(C)(C)[C@H]1[C@H](O)[C@@]3(O)OC2 [LONGIKAURIN E] | 1.8 | 1.9 | 3.9 | 1.9 | 2.4
C=C1C(=O)[C@@]23[C@@H]4O[C@H]5O[C@@]2(O)[C@@H](O)[C@@H]2C(C)(C)CCC[C@]52[C@@H]3[C@@H](O)C[C@@H]14 [MACROCALIN B] | 12.4 | 9.1 | 31.9 | 26.9 | 10.9
C=C1C(=O)[C@@]23[C@@H]4OC5O[C@@]2(O)[C@@H](O)[C@@H]2C(C)(C)CC[C@@H](O)[C@]52[C@@H]3CC[C@@H]14 [PONICIDIN] | 7.4 | 5 | 16.5 | 16.3 | 2.8
C=C1[C@@H](O)[C@]23[C@H](O)[C@H]1C[C@H](O)[C@H]2[C@@]12CCCC(C)(C)[C@H]1[C@H](O)[C@@]3(O)O[C@@H]2OC [ISOADENOLIN E] | > 10 | > 10 | > 10 | > 10 | > 10
C=C1C(=O)[C@]23[C@H](O)[C@H]1CC[C@H]2[C@@]12[C@H](OC)O[C@]3(O)[C@@H](O)[C@@H]1C(C)(C)CC[C@@H]2OC(C)=O [ISOADENOLIN H] | > 10 | > 10 | > 10 | > 10 | > 10
COC[C@H]1C(=O)[C@@]23[C@H]4O[C@H]5O[C@]2(O)[C@@H](O)[C@@H]2C(C)(C)CC[C@H](O)[C@]52[C@@H]3CC[C@@H]14 [ISOADENOLIN C] | > 10 | > 10 | > 10 | > 10 | > 10
C=C1C(=O)[C@]23[C@H](O)[C@H]1CC[C@H]2[C@@]12CO[C@@]3(O)[C@@H](O)[C@@H]1C(C)(C)CC[C@@H]2OC(C)=O [LASIOKAURIN] | 3.2 | 2 | 7.6 | 5.3 | 2.3
COC[C@@H]1C(=O)[C@]23[C@H](O)[C@H]1C[C@H](O)[C@H]2[C@@]12CCCC(C)(C)[C@H]1[C@H](O)[C@@]3(O)O[C@@H]2OC [ISOADENOLIN D] | > 10 | > 10 | > 10 | > 10 | > 10
C=C1C(=O)[C@@]23C(=CC[C@@H]1[C@H]2O)[C@@]12CO[C@]3(O)[C@@H](O)[C@@H]1C(C)(C)CC[C@@H]2OC(C)=O [ISOADENOLIN J] | > 10 | > 10 | > 10 | > 10 | > 10
C=C1[C@H]2C[C@]3(C(=C[C@@H]2O)[C@@]24CO[C@]3(O)[C@@H](O)[C@@H]2C(C)(C)CC[C@@H]4OC(C)=O)[C@@H]1O [ISOADENOLIN K] | 3.5 | 5.7 | 14.1 | 3 | 3.1
CC(=O)O[C@H]1C(=O)[C@@]2(C)[C@H]([C@H](OC(=O)c3ccccc3)[C@]3(O)C[C@H](OC(=O)[C@H](O)[C@@H](NC(=O)c4ccccc4)c4ccccc4)C(C)=C1C3(C)C)[C@]1(OC(C)=O)CO[C@@H]1C[C@@H]2O [PACLITAXEL] | 0.01 | < 0.008 | < 0.008 | < 0.008 | < 0.008
C=C1C(=O)[C@]23[C@H](O)[C@H]1CC[C@H]2[C@]12CCCC(C)(C)[C@H]1[C@H](O)[C@]3(O)OC2=O [XEROPHILUSIN N] | 3.8 | 3.6 | 9.7 | 7.9 | 3.5
COC[C@H]1C(=O)[C@]23[C@H](O)[C@H]1CC[C@H]2[C@@]12CO[C@]3(O)[C@@H](O)[C@@H]1C(C)(C)CC[C@@H]2OC(C)=O [LASIOKAURININ] | 6.8 | 4.8 | 20.4 | 6 | 4.9
C=C1C(=O)[C@@]23[C@@H]4O[C@H]5O[C@@]2(O)[C@@H](O)[C@@H]2C(C)(C)CCC[C@]52[C@@H]3CC[C@@H]14 [XEROPHILUSIN B] | 0.8 | 1.3 | 2 | 1.1 | 0.9
C=C1C(=O)[C@]23[C@H](O)[C@H]1CC[C@H]2[C@@]12[C@H](O)O[C@]3(O)[C@@H](O)[C@@H]1C(C)(C)CC[C@@H]2OC(C)=O [XEROPHILUSIN J] | 7.6 | 4.6 | 21.7 | 9.7 | 2.7
